The text below walks through data of patent US20110039873A1, “SUBSTITUTED PYRAZOLO[1,5-a] PYRIDINE COMPOUNDS HAVING MULTI-TARGET ACTIVITY” (priority 2009, published 2011).

Data set [1] addresses T1, recombinant full length human JNK3 enzyme (Homo sapiens, UniProt P53779).
T1 construct: recombinant full length human JNK2 or JNK3 enzyme; purchased Upstate; host or cells: Sf21 cells
The data set can be described thus: JNK 3 inhibition assay (ATP depletion, luciferase). The class given is biochemical. The conditions noted are these: for IC50: 10 uM ATP, ATF2 substrate; for JNK-3 inhibition (in words): see Table 2. Here is the method: In a 96-well plate, recombinant full length human JNK2 or JNK3 enzyme (40 ng) expressed in Sf21 cells (Upstate) was incubated with the substrate ATF2 (3 uM) for 1 hour in the presence of 10 uM ATP. […] The ATP levels were quantified using luciferase with luminescence read on a Victor Light 1420 luminometer. IC50 calculations were plotted using a nonlinear regression curve fit.

A short description of data set [2]: Oral pharmacokinetic evaluation. The following applies: Sprague-Dawley rats; for half-life / AUC(0-t) / Cmax: male, rat, plasma; for half-life: Sprague-Dawley, po, 15 mg/kg; for AUC(0-t): read-out: Oral PK AUClast; for Cmax: read-out: Oral PK Cmax. The data set is classed as in vivo, rat. As for the experimental part: Three male Sprague-Dawley rats were dosed orally via gavage with 15 mg/kg of test compound. Serial blood samples were collected from the jugular vein at 5, 15, and 30 min, 1, 3, and 6 hours post dosing. Samples were processed for plasma via centrifugation and plasma samples were stored frozen prior to analysis via a sensitive and specific HPLC/MS/MS method. PK parameters were calculated using WinNonLin (Pharsight).

Data set [3] addresses T2, catalytic domain of phosphodiesterase 4B enzyme cloned from human brain (Homo sapiens, UniProt Q07343).
T2 construct: the catalytic domain of phosphodiesterase 4B enzyme; purchased Scottish Biomedical
Briefly: PDE4 inhibition assay (PDELight). The data set is classed as biochemical. The following applies: for IC50: 5 uM cAMP, read-out: PDE 4 Inhibition (IC50 in μM). An outline of the steps: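 Human PDE4B catalytic domain (40 mU/well) incubated with 5 uM cAMP. AMP formed was converted to ATP and measured by luciferase luminescence (PDELight). IC50 derived by nonlinear regression curve fit.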

Data set [4] deals with T3, recombinant full length human JNK2 enzyme (Homo sapiens, UniProt P45984).
T3 construct: recombinant full length human JNK2 or JNK3 enzyme; purchased Upstate; host or cells: Sf21 cells
The data set can be described thus: JNK 2 inhibition assay (ATP depletion, luciferase). The class given is biochemical. As for the experimental part:
In a 96-well plate, recombinant full length human JNK2 or JNK3 enzyme (40 ng) expressed in Sf21 cells (Upstate) was incubated with the substrate ATF2 (3 uM) for 1 hour in the presence of 10 uM ATP. […] IC50 calculations were plotted using a nonlinear regression curve fit.

The test system of data set [5] is rat chronic constriction injury (CCI) model of neuropathic pain. Briefly: Rat chronic constriction injury (CCI) model of neuropathic pain. The class given is in vivo. The following applies: for IP CCI efficacy (Change in grams): dose not given, 50% paw withdrawal threshold, von Frey.
Data set [6] concerns Mouse BV-2 microglial cells. Briefly: BV-2 glial cell assay (TNF-α and MCP-1 by Luminex). The class given is cell-based. The conditions noted are these: for EC50: Mus musculus, BV-2, LPS and IFN-γ activated, 20 hours; for inhibiting glial cell activation (TNF-α and/or MCP-1): Table 3. Here is the method: Mouse BV-2 microglial cells were seeded on 96-well plates at a concentration of 3×10^4 cells/well. Cells were activated with 100 ng/mL LPS and IFN-γ (100 ng/mL) in the presence or absence of test compounds (0-30 uM). Following incubation for 20 hours, cells were spun down and supernatant collected. The supernatant was analyzed via Luminex for the presence of TNF-α and MCP-1.

Data set [7] deals with at least one of JNK 3 or JNK 2 and at least one of PDE 10 or PDE 4. The data set can be described thus: Dual inhibition (phosphodiesterase and JNK). The class given is biochemical, human. The conditions noted are these: IC50 JNK 3 or JNK 2 less than about 5.00 μM and PDE 10 or PDE 4 less than about 20.0 or 30.0 μM. An outline of the steps:
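JNK2/JNK3: full-length human enzyme with 3 uM ATF2 and 10 uM ATP for 1 h, ATP depletion by luciferase luminescence. PDE4B catalytic domain with 5 uM cAMP, or PDE10A1 with 1 uM cAMP, 1 h; AMP converted to ATP for luminescence. Compounds 0–30 uM; IC50 by nonlinear regression.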

Where [8] appears, read: 15 mg/kg oral gavage, read-out: Oral PK T½ (converted).
Where [9] appears, read: 10 uM ATP, ATF2 substrate, read-out: JNK 2 Inhibition (IC50 in μM).
Where [10] appears, read: read-out: MCP-1 BV-2 (EC50 in μM).
Where [11] appears, read: read-out: TNF-a BV-2 (EC50 in μM).
[12] abbreviates: read-out: IC50 value based upon a JNK 2 inhibition assay (range given).

Like-named read-outs stand apart in the source and are kept apart here. Some results are limits rather than exact numbers.

T1 sequence (P53779 whole entry): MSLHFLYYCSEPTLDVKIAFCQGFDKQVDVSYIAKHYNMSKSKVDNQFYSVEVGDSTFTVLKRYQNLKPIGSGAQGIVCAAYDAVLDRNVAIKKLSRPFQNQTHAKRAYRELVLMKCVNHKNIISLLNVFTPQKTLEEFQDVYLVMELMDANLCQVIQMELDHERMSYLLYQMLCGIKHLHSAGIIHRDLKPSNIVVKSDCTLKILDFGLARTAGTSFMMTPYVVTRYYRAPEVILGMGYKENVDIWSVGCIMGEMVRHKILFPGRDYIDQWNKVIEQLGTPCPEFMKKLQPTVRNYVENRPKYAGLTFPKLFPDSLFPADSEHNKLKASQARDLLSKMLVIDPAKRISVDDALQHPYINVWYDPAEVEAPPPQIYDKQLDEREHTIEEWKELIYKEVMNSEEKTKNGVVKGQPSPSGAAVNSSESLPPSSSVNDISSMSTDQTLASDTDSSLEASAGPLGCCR
T3 sequence (P45984 whole entry): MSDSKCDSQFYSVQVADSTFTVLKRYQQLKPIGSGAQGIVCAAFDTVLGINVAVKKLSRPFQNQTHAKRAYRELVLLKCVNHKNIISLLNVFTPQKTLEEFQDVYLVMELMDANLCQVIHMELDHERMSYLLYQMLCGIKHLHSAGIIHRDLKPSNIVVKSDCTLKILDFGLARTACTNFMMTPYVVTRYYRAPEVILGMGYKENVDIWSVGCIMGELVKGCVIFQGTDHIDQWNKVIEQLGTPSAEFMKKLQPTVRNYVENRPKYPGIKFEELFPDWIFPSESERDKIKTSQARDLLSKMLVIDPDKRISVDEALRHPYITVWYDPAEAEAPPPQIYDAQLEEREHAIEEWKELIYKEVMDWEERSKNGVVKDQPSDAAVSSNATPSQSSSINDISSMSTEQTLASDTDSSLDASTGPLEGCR
T2 sequence (Q07343 330-659 limits assumed): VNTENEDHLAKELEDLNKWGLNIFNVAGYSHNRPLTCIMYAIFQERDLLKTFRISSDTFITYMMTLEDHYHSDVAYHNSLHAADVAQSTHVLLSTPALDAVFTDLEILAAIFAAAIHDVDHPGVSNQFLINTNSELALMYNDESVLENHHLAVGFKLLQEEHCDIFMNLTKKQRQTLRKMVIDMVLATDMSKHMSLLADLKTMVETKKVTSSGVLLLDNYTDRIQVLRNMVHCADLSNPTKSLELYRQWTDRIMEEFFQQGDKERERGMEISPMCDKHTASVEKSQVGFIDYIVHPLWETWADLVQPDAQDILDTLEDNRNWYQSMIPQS

The IC50 is the midpoint of a concentration-inhibition curve. By Cmax is commonly meant the highest concentration seen after dosing. Usually EC50 stands for the midpoint of the concentration-response curve. In the case of `CC(C)Nc1nccc(-c2c(C(C)C)nn3ccccc23)n1` [AV1137, N-isopropyl-4-(2-isopropylpyrazolo[1,5-a]pyridin-3-yl)pyrimidin-2-amine], the values for the IC50 in data set [1], in data set [3] and in data set [4] (setting [9]) were 2.6 µM, 4.3 µM and 1.6 µM, respectively. Also, the half-life in data set [2] (setting [8]) is 1.2 h. Further, the AUC(0-t) in data set [2] (15 mg/kg oral gavage) was 52 ng·h/mL. For the same compound, the Cmax in data set [2] (15 mg/kg oral gavage) worked out at 26 ng/mL. Further, the “PDE-4 inhibition (in words)” value in data set [3] is recorded as “particularly effective”. For the same compound, the “IP CCI efficacy (Change in grams)” value in data set [5] came to 3.26 grams. In addition, the “PO CCI efficacy (Change in grams)” value in data set [5] (75 mg/kg) was 0.94 (75 mg/kg) grams. The EC50 in data set [6] (setting [10]) is 1.1 µM; in data set [6] (setting [11]), 1.2 µM. The “inhibiting glial cell activation (TNF-α and/or MCP-1)” value (“inhibiting glial cell activation” below) in data set [6] was “Particularly effective”. The “dual inhibition (phosphodiesterase and JNK)” value (“dual inhibition” below) in data set [7] is “effective dual inhibitors”.
As for `CC(C)Nc1nccc(-c2cnn3ccccc23)n1` [AV1164, N-isopropyl-4-(pyrazolo[1,5-a]pyridin-3-yl)pyrimidin-2-amine], the IC50 is 0.3 µM in data set [1], 5.9 µM in data set [3], 0.5 µM in data set [4] (setting [9]) and 0.01 to 2 µM in data set [4] (setting [12]). Besides, the “JNK-3 inhibition (in words)” value in data set [1] is given as “particularly effective”. In addition, the AUC(0-t) in data set [2] (15 mg/kg oral gavage) came out at 12 ng·h/mL. Also, in data set [2] (15 mg/kg oral gavage), the Cmax is 17 ng/mL. The “PDE-4 inhibition (in words)” value in data set [3] was “particularly effective”. Also, the “IP CCI efficacy (Change in grams)” value in data set [5] was 1.56 grams. In addition, the values for the EC50 in data set [6] (setting [10]) and in data set [6] (setting [11]) were 4.9 µM and 0.4 µM, respectively. Moreover, the “inhibiting glial cell activation” value in data set [6] is “Particularly effective”. Moreover, the “dual inhibition” value in data set [7] was “effective dual inhibitors”.
As to `c1ccn2ncc(-c3ccnc(NC4CCCC4)n3)c2c1` [AV1165, N-cyclopentyl-4-(pyrazolo[1,5-a]pyridin-3-yl)pyrimidin-2-amine], the IC50 in data set [1] is 0.2 µM; in data set [3], 14 µM; in data set [4] (setting [9]) it was 0.4 µM; in data set [4] (setting [12]), 0.01 to 2 µM. In addition, the “JNK-3 inhibition (in words)” value in data set [1] was “particularly effective”. Besides, the AUC(0-t) in data set [2] (15 mg/kg oral gavage) was < 5 ng·h/mL. Besides, the “IP CCI efficacy (Change in grams)” value in data set [5] worked out at 0.44 grams. Also, the concentration giving a half-maximal response (EC50) in data set [6] (setting [10]) was 0.6 µM; in data set [6] (setting [11]), 0.2 µM. The “inhibiting glial cell activation” value in data set [6] was “Particularly effective”. In addition, in data set [7], the “dual inhibition” value is recorded as “effective dual inhibitors”.
With `CC(C)Nc1nccc(-c2c(C3CC3)nn3ccccc23)n1` [AV1173, 4-(2-cyclopropylpyrazolo[1,5-a]pyridin-3-yl)-N-isopropylpyrimidin-2-amine], the IC50 is 1.2 µM in data set [1], 1.1 µM in data set [3], 0.3 µM in data set [4] (setting [9]) and 0.01 to 2 µM in data set [4] (setting [12]). For the same compound, the “JNK-3 inhibition (in words)” value in data set [1] is given as “particularly effective”. Moreover, in data set [2] (oral), the “half life following oral dosing (in words)” value is “particularly prolonged half lives”. In addition, the half-life in data set [2] (setting [8]) is 9.4 h; in data set [2] (oral, read-out: half life following oral dosing) it was > 3 h. Moreover, the AUC(0-t) in data set [2] (15 mg/kg oral gavage) is 462 ng·h/mL. Moreover, in data set [2] (15 mg/kg oral gavage), the Cmax turned out to be 122 ng/mL. In data set [3], the “PDE-4 inhibition (in words)” value is on record as “particularly effective”. For the same compound, the “IP CCI efficacy (Change in grams)” value in data set [5] was determined as 2.5 grams. Moreover, the “PO CCI efficacy (Change in grams)” value in data set [5] (30 mg/kg) was 1.6 (30 mg/kg) grams. The reversal of allodynia entry in data set [5] (oral dosing, multi-day, 24 hr time-points, FIG. 6) is “capable of reversing allodynia and sustaining the efficacy overnight”. Moreover, the EC50 is 0.7 µM in data set [6] (setting [10]) and 1.4 µM in data set [6] (setting [11]). Besides, in data set [6], the “inhibiting glial cell activation” value is listed as “Particularly effective”. The “dual inhibition” value in data set [7] is “effective dual inhibitors”.
